# Measurements taken from US20250161243A1, “MEF2 TRANSCRIPTIONAL ACTIVATORS TO TREAT NEUROLOGIC CONDITIONS” (The Scripps Research Institute, priority 2022, published 2025).
# Entries after “also recorded” stand apart in the source; their conditions may differ.
# Key:
# [1] = tested on: MEF2 transcriptional activity; assay: MEF2 transcriptional activity screen (Luciferase-MEF2 reporter in human neural progenitor cells); assay type: cell-based; details: for EC50: Homo sapiens, concentration for half-maximal activity derived from the hill equation model, MEF2 luciferase reporter, read-out: qAC50
# [2] = literature references given; cited from earlier work
# [3] = tested on: MEF2C haploinsufficiency syndrome (MCHS) patient hiPSC-derived cerebrocortical neurons; assay: Calcium events (fluo-4AM) in MCHS patient hiPSC-derived cerebrocortical neurons; assay type: cell-based, human; details: MCHS neurons against isogenic WT control
# Description: FIGS. 6A and 6B. AR-42 decreases hyperelectrical activity in MEF2C haploinsufficiency syndrome (MCHS) patient hiPSC-derived cerebrocortical neurons. (FIG. 5A) Representative traces of calcium events using fluo-4AM calcium-sensitive dye in hiPSC-derived neurons. […] (FIG. 5B) Quantification of calcium event frequency. Data represent mean±SEM. Sample size was 5 neurons imaged per coverslip in 3 coverslips. * P<0.05 by one-way ANOVA and Tukey post-hoc test.
# (§1) In an embodiment, a compound for use in a method as described herein is AR-42 (Table 1).
# [4] = tested on: MEF2 transcriptional activity; assay: Confirmatory screen and Renilla counter-screen of MEF2 reporter activity; assay type: cell-based, human; details: n=3
# Description: FIG. 4. Dose-response for hits in the Renilla counterscreen. Dose response plots for AR-42, that had high EC50 and >3-fold increase in MEF2 activity in the primary screen. (n=3).
# as §1
# [5] = tested on: MEF2C haploinsufficient (MHCS) patient hiPSC-derived cerebrocortical neurons; assay: MAP2 protein expression (immunoblot) in MCHS patient hiPSC-derived cerebrocortical neurons; assay type: cell-based, human; details: MCHS neurons versus WT control, in vitro
# Description: FIGS. 5A and 5B. […] (FIG. 4A) MAP2 protein expression in neurons treated with AR-42 and (n=3 in 2 independent experiments). (FIG. 4B) Representative immunoblot of MAP2 expression and GAPDH loading control. Data represented as mean±SEM. * P<0.05 by one-way ANOVA and Tukey post-hoc test.
# Additionally, the neurons of patients with MEF2C haploinsufficiency syndrome (MCHS) display shorter neurites. The neuronal marker MAP2 was monitored as a biomarker for neurites in the MCHS hiPSC-derived neurons versus WT control: compromised levels of MAP2 were found, but they were corrected by treatment with AR-42 in vitro (FIGS. 6A and 6B). These types of assays correlate well with improvement in behavioral studies in this type of ASD/ID, as illustrated by the use mouse models of MCHS (S. Tu (2017)).
Compound,EC50 [1],PAMPA Pe (10^−6 cm s^−1) [2],"aberrant hyperactivity (Ca^2+ signaling, calcium event frequency) [3]","increase in MEF2 activity in the primary screen ([1]; primary screen, 10 μM)",MEF2 transcriptional activity corrected with control Renilla-based (non-specific) reporter [4],MAP2 levels (neurite biomarker) [5]
Nc1c2ccccc2nc2ccccc12 [ACRISORCIN],19.3 µM,6 10^−6 cm s^−1,,,,
CC(C)[C@H](C(=O)Nc1ccc(C(=O)NO)cc1)c1ccccc1 [AR-42],0.439 µM,,"normalizes this aberrant, excessive activity; also recorded: decreased aberrant hyperactivity",> 3 fold,increased MEF2 transcriptional activity,increase MAP2 levels; also recorded: corrected
CNS(=O)(=O)Nc1nccc(Cc2c(C)c3ccc(Oc4ncccn4)cc3oc2=O)c1F [RO-5126766],0.0391 µM,6 10^−6 cm s^−1,,,,
